Source: ChEMBL document CHEMBL3745645, “Synthesis, in vitro antitumor activity, dihydrofolate reductase inhibition, DNA intercalation and structure-activity relationship studies of 1,3,5-triazine analogues” (Bioorg Med Chem Lett, 2016)
Active and inactive are the calls of the source. No cut-off for these calls is given here.

Key:
Type in all cases: functional
CAKI-1 = assay: Cytotoxicity against human Caki1 cells at 10 uM after 48 hrs by SRB assay
[1] = Cytotoxicity against human RXF393 cells at 10 uM after 48 hrs by SRB assay; details: RXF 393, 48 h, read-out: GI
SN12C = assay: Cytotoxicity against human SN12C cells at 10 uM after 48 hrs by SRB assay; details: read-out: GI
TK-10 = assay: Cytotoxicity against human TK10 cells at 10 uM after 48 hrs by SRB assay
[2] = Cytotoxicity against human UO31 cells at 10 uM after 48 hrs by SRB assay; details: UO-31, 48 h, read-out: GI
[3] = Cytotoxicity against human DU145 cells at 10 uM after 48 hrs by SRB assay; details: DU-145, 48 h, read-out: GI
MCF7 = assay: Cytotoxicity against human MCF7 cells at 10 uM after 48 hrs by SRB assay; details: MCF7, 48 h, read-out: GI
MDA-MB-231 = assay: Cytotoxicity against human MDA-MB-231 cells at 10 uM after 48 hrs by SRB assay; details: MDA-MB-231, 48 h, read-out: GI
Hs-578T = assay: Cytotoxicity against human Hs 578T cells at 10 uM after 48 hrs by SRB assay
BT-549 = assay: Cytotoxicity against human BT549 cells at 10 uM after 48 hrs by SRB assay
T47D = assay: Cytotoxicity against human T47D cells at 10 uM after 48 hrs by SRB assay; details: read-out: GI
MDA-MB-468 = assay: Cytotoxicity against human MDA-MB-468 cells at 10 uM after 48 hrs by SRB assay; details: MDA-MB-468, 48 h, read-out: GI
CCRF-CEM = assay: Cytotoxicity against human CCRF-CEM cells at 10 uM after 48 hrs by SRB assay; details: read-out: GI
HL-60(TB) = assay: Cytotoxicity against human HL-60(TB) cells at 10 uM after 48 hrs by SRB assay
K562 = assay: Cytotoxicity against human K562 cells at 10 uM after 48 hrs by SRB assay; details: K562, 48 h, read-out: GI
[4] = Cytotoxicity against human RPMI8226 cells at 10 uM after 48 hrs by SRB assay; details: RPMI-8226, 48 h, read-out: GI
SR = assay: Cytotoxicity against human SR cells at 10 uM after 48 hrs by SRB assay; details: read-out: GI
A549 = assay: Cytotoxicity against human A549 cells at 10 uM after 48 hrs by SRB assay; details: A549, 48 h, read-out: GI
[5] = Cytotoxicity against human HOP62 cells at 10 uM after 48 hrs by SRB assay; details: HOP-62, 48 h, read-out: GI
[6] = Cytotoxicity against human HOP92 cells at 10 uM after 48 hrs by SRB assay; details: HOP-92, 48 h, read-out: GI
NCI-H226 = assay: Cytotoxicity against human NCI-H226 cells at 10 uM after 48 hrs by SRB assay; details: NCI-H226, 48 h, read-out: GI
NCI-H322M = assay: Cytotoxicity against human NCI-H322M cells at 10 uM after 48 hrs by SRB assay; details: read-out: GI
NCI-H460 = assay: Cytotoxicity against human NCI-H460 cells at 10 uM after 48 hrs by SRB assay; details: NCI-H460, 48 h, read-out: GI
NCI-H522 = assay: Cytotoxicity against human NCI-H522 cells at 10 uM after 48 hrs by SRB assay; details: NCI-H522, 48 h, read-out: GI
[7] = Cytotoxicity against human COLO205 cells at 10 uM after 48 hrs by SRB assay; details: COLO 205, 48 h, read-out: GI
HCC 2998 = assay: Cytotoxicity against human HCC2998 cells at 10 uM after 48 hrs by SRB assay
[8] = Cytotoxicity against human HCT116 cells at 10 uM after 48 hrs by SRB assay; details: HCT-116, 48 h, read-out: GI
HCT-15 = assay: Cytotoxicity against human HCT15 cells at 10 uM after 48 hrs by SRB assay
HT-29 = assay: Cytotoxicity against human HT-29 cells at 10 uM after 48 hrs by SRB assay; details: HT-29, 48 h, read-out: GI
KM12 = assay: Cytotoxicity against human KM12 cells at 10 uM after 48 hrs by SRB assay; details: KM12, 48 h, read-out: GI
SW-620 = assay: Cytotoxicity against human SW620 cells at 10 uM after 48 hrs by SRB assay
[9] = Cytotoxicity against human SF268 cells at 10 uM after 48 hrs by SRB assay; details: SF-268, 48 h, read-out: GI
[10] = Cytotoxicity against human SF295 cells at 10 uM after 48 hrs by SRB assay; details: SF-295, 48 h, read-out: GI
[11] = Cytotoxicity against human SF539 cells at 10 uM after 48 hrs by SRB assay; details: SF-539, 48 h, read-out: GI
SNB-19 = assay: Cytotoxicity against human SNB19 cells at 10 uM after 48 hrs by SRB assay
SNB-75 = assay: Cytotoxicity against human SNB75 cells at 10 uM after 48 hrs by SRB assay
U-251 = assay: Cytotoxicity against human U251 cells at 10 uM after 48 hrs by SRB assay; details: U-251, 48 h, read-out: GI
[12] = Cytotoxicity against human LOXIMVI cells at 10 uM after 48 hrs by SRB assay; details: LOX IMVI, read-out: GI
Malme-3M = assay: Cytotoxicity against human MALME-3M cells at 10 uM after 48 hrs by SRB assay
M14 = assay: Cytotoxicity against human M14 cells at 10 uM after 48 hrs by SRB assay; details: M14, 48 h, read-out: GI
MDA-MB-435 = assay: Cytotoxicity against human MDA-MB-435 cells at 10 uM after 48 hrs by SRB assay; details: MDA-MB-435, 48 h, read-out: GI
SK-MEL-2 = assay: Cytotoxicity against human SK-MEL-2 cells at 10 uM after 48 hrs by SRB assay
SK-MEL-28 = assay: Cytotoxicity against human SK-MEL-28 cells at 10 uM after 48 hrs by SRB assay
SK-MEL-5 = assay: Cytotoxicity against human SK-MEL-5 cells at 10 uM after 48 hrs by SRB assay; details: SK-MEL-5, 48 h, read-out: GI
[13] = Cytotoxicity against human UACC257 cells at 10 uM after 48 hrs by SRB assay; details: UACC-257, 48 h, read-out: GI
[14] = Cytotoxicity against human IGROV1 cells at 10 uM after 48 hrs by SRB assay; details: IGROV-1, 48 h, read-out: GI
[15] = Cytotoxicity against human OVCAR3 cells at 10 uM after 48 hrs by SRB assay; details: OVCAR-3, 48 h, read-out: GI
[16] = Cytotoxicity against human OVCAR4 cells at 10 uM after 48 hrs by SRB assay; details: OVCAR-4, 48 h, read-out: GI
OVCAR-5 = assay: Cytotoxicity against human OVCAR5 cells at 10 uM after 48 hrs by SRB assay
[17] = Cytotoxicity against human OVCAR8 cells at 10 uM after 48 hrs by SRB assay; details: OVCAR-8, 48 h, read-out: GI
[18] = Cytotoxicity against human NCI-ADR-RES cells at 10 uM after 48 hrs by SRB assay; details: read-out: GI
SK-OV-3 = assay: Cytotoxicity against human SKOV3 cells at 10 uM after 48 hrs by SRB assay
786-0 = assay: Cytotoxicity against human 786-0 cells at 10 uM after 48 hrs by SRB assay; details: 786-0, 48 h, read-out: GI
A498 = assay: Cytotoxicity against human A498 cells at 10 uM after 48 hrs by SRB assay; details: A498, 48 h, read-out: GI
ACHN = assay: Cytotoxicity against human ACHN cells at 10 uM after 48 hrs by SRB assay; details: read-out: GI

Cc1nc2cc(Nc3nc(NCCO)nc(Nc4ccc(F)cc4)n3)ccc2n1Cc1ccccc1
growth inhibition (GI) (CAKI-1): inactive
inhibition of growth at 10 µM [1]: 9.82%
inhibition of growth at 10 µM (SN12C): 8.89%
growth inhibition (GI) (TK-10): inactive
inhibition of growth at 10 µM [2]: 21.2%
inhibition of growth at 10 µM [3]: 11.5%
inhibition of growth at 10 µM (MCF7): 8.72%
inhibition of growth at 10 µM (MDA-MB-231): 19.7%
growth inhibition (GI) (Hs-578T): inactive
growth inhibition (GI) (BT-549): inactive
inhibition of growth at 10 µM (T47D): 34.7%
inhibition of growth at 10 µM (MDA-MB-468): 0.84%
inhibition of growth at 10 µM (CCRF-CEM): 98.1%
growth inhibition (GI) (HL-60(TB)): Active
inhibition of growth at 10 µM (K562): 80.8%
inhibition of growth at 10 µM [4]: 85.8%
inhibition of growth at 10 µM (SR): 85.1%
inhibition of growth at 10 µM (A549): 25.9%
inhibition of growth at 10 µM [5]: 6.05%
inhibition of growth at 10 µM [6]: 50.1%
inhibition of growth at 10 µM (NCI-H226): 8.37%
inhibition of growth at 10 µM (NCI-H322M): 1.09%
inhibition of growth at 10 µM (NCI-H460): 16.5%
inhibition of growth at 10 µM (NCI-H522): 14.3%
inhibition of growth at 10 µM [7]: 5.46%
growth inhibition (GI) (HCC 2998): inactive
inhibition of growth at 10 µM [8]: 23.4%
growth inhibition (GI) (HCT-15): inactive
inhibition of growth at 10 µM (HT-29): 28.1%
inhibition of growth at 10 µM (KM12): 19.7%
growth inhibition (GI) (SW-620): inactive
inhibition of growth at 10 µM [9]: 7.77%
inhibition of growth at 10 µM [10]: 13.6%
inhibition of growth at 10 µM [11]: 5.61%
growth inhibition (GI) (SNB-19): inactive
growth inhibition (GI) (SNB-75): inactive
inhibition of growth at 10 µM (U-251): 13.7%
inhibition of growth at 10 µM [12]: 18.1%
growth inhibition (GI) (Malme-3M): inactive
inhibition of growth at 10 µM (M14): 6.95%
inhibition of growth at 10 µM (MDA-MB-435): 8.37%
growth inhibition (GI) (SK-MEL-2): inactive
growth inhibition (GI) (SK-MEL-28): inactive
inhibition of growth at 10 µM (SK-MEL-5): 19.7%
inhibition of growth at 10 µM [13]: 1.2%
inhibition of growth at 10 µM [14]: 11.1%
inhibition of growth at 10 µM [15]: 9.84%
inhibition of growth at 10 µM [16]: 4.73%
growth inhibition (GI) (OVCAR-5): inactive
inhibition of growth at 10 µM [17]: 20%
inhibition of growth at 10 µM [18]: 2.28%
growth inhibition (GI) (SK-OV-3): inactive
inhibition of growth at 10 µM (786-0): 5.33%
inhibition of growth at 10 µM (A498): 33.8%
inhibition of growth at 10 µM (ACHN): 1.72%
